In ChEMBL document CHEMBL5303573, “Mapping human microbiome drug metabolism by gut bacteria and their genes” (Nature, 2019):

What was measured:
[1] = The drug is tested on Blautia luti strain: DSM14534 for biotransformation. The drug concentrations were measured before and after a 12-h incubation by liquid-chromatography-coupled mass spectrometry (LC–MS); format: ADME; parameters: dose 2 uM, timepoint 0 vs 12 hours; conditions: 2 µM
[2] = The drug is tested on Eubacterium rectale strain: ATCC33656 for biotransformation. The drug concentrations were measured before and after a 12-h incubation by liquid-chromatography-coupled mass spectrometry (LC–MS); conditions: agathobacter rectalis, 2 µM
[3] = The drug is tested on Anaerotruncus colihominis strain: DSM17241 for biotransformation. The drug concentrations were measured before and after a 12-h incubation by liquid-chromatography-coupled mass spectrometry (LC–MS); conditions: 2 µM
[4] = The drug is tested on Bacteroides fragilis strain: HMW615 for biotransformation. The drug concentrations were measured before and after a 12-h incubation by liquid-chromatography-coupled mass spectrometry (LC–MS); conditions: 2 µM
[5] = The drug is tested on Blautia hansenii strain: DSM20583 for biotransformation. The drug concentrations were measured before and after a 12-h incubation by liquid-chromatography-coupled mass spectrometry (LC–MS); conditions: 2 µM
[6] = The drug is tested on Bacteroides cellulosilyticus strain: DSM14838 for biotransformation. The drug concentrations were measured before and after a 12-h incubation by liquid-chromatography-coupled mass spectrometry (LC–MS); conditions: 2 µM
[7] = The drug is tested on Bifidobacterium ruminantium strain: fecal isolate for biotransformation. The drug concentrations were measured before and after a 12-h incubation by liquid-chromatography-coupled mass spectrometry (LC–MS); conditions: 2 µM
[8] = The drug is tested on Parabacteroides merdae strain: ATCC43184 for biotransformation. The drug concentrations were measured before and after a 12-h incubation by liquid-chromatography-coupled mass spectrometry (LC–MS); conditions: 2 µM
[9] = The drug is tested on Bifidobacterium breve strain: DSM20213 for biotransformation. The drug concentrations were measured before and after a 12-h incubation by liquid-chromatography-coupled mass spectrometry (LC–MS); conditions: 2 µM
[10] = The drug is tested on Bacteroides xylanisolvens strain: DSM18836 for biotransformation. The drug concentrations were measured before and after a 12-h incubation by liquid-chromatography-coupled mass spectrometry (LC–MS); conditions: 2 µM
[11] = The drug is tested on Bacteroides dorei strain: DSM17855 for biotransformation. The drug concentrations were measured before and after a 12-h incubation by liquid-chromatography-coupled mass spectrometry (LC–MS); conditions: phocaeicola dorei, 2 µM
[12] = bacteroides thetaiotaomicron, 12 h, 2 µM
Description: The drug is tested on Bacteroides thetaiotaomicron strain: VPI-5482 for biotransformation. The drug concentrations were measured before and after a 12-h incubation by liquid-chromatography-coupled mass spectrometry (LC–MS)

[13] = The drug is tested on Bacteroides uniformis strain: ATCC8492 for biotransformation. The drug concentrations were measured before and after a 12-h incubation by liquid-chromatography-coupled mass spectrometry (LC–MS); conditions: 2 µM
[14] = The drug is tested on Collinsella intestinalis strain: DSM13280 for biotransformation. The drug concentrations were measured before and after a 12-h incubation by liquid-chromatography-coupled mass spectrometry (LC–MS); conditions: 2 µM
[15] = The drug is tested on Bifidobacterium longum subsp. Infantis strain: CCUG52486 for biotransformation. The drug concentrations were measured before and after a 12-h incubation by liquid-chromatography-coupled mass spectrometry (LC–MS); conditions: 2 µM
[16] = anaerostipes sp., 12 h, 2 µM
Description: The drug is tested on Anaerostipes sp. strain: fecal isolate for biotransformation. The drug concentrations were measured before and after a 12-h incubation by liquid-chromatography-coupled mass spectrometry (LC–MS)

[17] = The drug is tested on Enterococcus faecalis strain: V583 for biotransformation. The drug concentrations were measured before and after a 12-h incubation by liquid-chromatography-coupled mass spectrometry (LC–MS); conditions: 2 µM
[18] = The drug is tested on Collinsella aerofaciens strain: ATCC25986 for biotransformation. The drug concentrations were measured before and after a 12-h incubation by liquid-chromatography-coupled mass spectrometry (LC–MS); conditions: 2 µM
[19] = The drug is tested on Providencia stuartii strain: ATCC25827 for biotransformation. The drug concentrations were measured before and after a 12-h incubation by liquid-chromatography-coupled mass spectrometry (LC–MS); conditions: 2 µM
[20] = The drug is tested on Clostridium scindens strain: ATCC35704 for biotransformation. The drug concentrations were measured before and after a 12-h incubation by liquid-chromatography-coupled mass spectrometry (LC–MS); conditions: 2 µM

Structure (SMILES) | Bacterial Biotransformation [1] | Bacterial Biotransformation [2] | Bacterial Biotransformation [3] | Bacterial Biotransformation [4] | Bacterial Biotransformation [5] | Bacterial Biotransformation [6] | Bacterial Biotransformation [7] | Bacterial Biotransformation [8] | Bacterial Biotransformation [9] | Bacterial Biotransformation [10] | Bacterial Biotransformation [11] | Bacterial Biotransformation [12] | Bacterial Biotransformation [13] | Bacterial Biotransformation [14] | Bacterial Biotransformation [15] | Bacterial Biotransformation [16] | Bacterial Biotransformation [17] | Bacterial Biotransformation [18] | Bacterial Biotransformation [19] | Bacterial Biotransformation [20]
O=c1[nH]c2ccccc2n1CCCN1CCC(n2c(=O)[nH]c3cc(Cl)ccc32)CC1 [DOMPERIDONE] | Compound NOT metabolized | Compound NOT metabolized | Compound NOT metabolized | Compound NOT metabolized | Compound NOT metabolized | Compound NOT metabolized | Compound NOT metabolized | Compound NOT metabolized | Compound NOT metabolized | Compound NOT metabolized | Compound NOT metabolized | Compound NOT metabolized | Compound NOT metabolized | Compound NOT metabolized | Compound NOT metabolized | Compound NOT metabolized | Compound NOT metabolized | Compound NOT metabolized |  | 
CCOC(=O)[C@H](CCc1ccccc1)N[C@@H](C)C(=O)N1CCC[C@H]1C(=O)O.O=C(O)/C=C\C(=O)O [ENALAPRIL MALEATE] | Compound NOT metabolized | Compound NOT metabolized | Compound NOT metabolized | Compound NOT metabolized | Compound metabolized | Compound NOT metabolized | Compound NOT metabolized | Compound NOT metabolized | Compound NOT metabolized | Compound metabolized |  |  | Compound NOT metabolized | Compound NOT metabolized | Compound NOT metabolized | Compound NOT metabolized | Compound NOT metabolized | Compound NOT metabolized | Compound NOT metabolized | Compound NOT metabolized
Nc1nc(N)nc(-c2cc(Cl)ccc2Cl)n1.O=C(O)/C=C\C(=O)O [IRSOGLADINE MALEATE] | Compound NOT metabolized |  | Compound NOT metabolized | Compound NOT metabolized | Compound NOT metabolized | Compound NOT metabolized | Compound metabolized | Compound NOT metabolized | Compound NOT metabolized | Compound NOT metabolized | Compound metabolized | Compound NOT metabolized | Compound NOT metabolized | Compound NOT metabolized |  | Compound NOT metabolized | Compound NOT metabolized | Compound NOT metabolized | Compound NOT metabolized | Compound NOT metabolized
N#Cc1ccc(C(c2ccc(C#N)cc2)n2cncn2)cc1 [LETROZOLE] | Compound NOT metabolized |  | Compound NOT metabolized | Compound NOT metabolized | Compound NOT metabolized | Compound NOT metabolized | Compound NOT metabolized | Compound NOT metabolized | Compound NOT metabolized | Compound NOT metabolized | Compound NOT metabolized | Compound NOT metabolized | Compound NOT metabolized | Compound NOT metabolized | Compound NOT metabolized | Compound NOT metabolized | Compound NOT metabolized | Compound NOT metabolized | Compound NOT metabolized | Compound NOT metabolized
CCN(CC)CCOC(=O)C(Cc1cccc2ccccc12)CC1CCCO1.O=C(O)C(=O)O (stereo not given) [NAFRONYL OXALATE] | Compound NOT metabolized | Compound NOT metabolized | Compound NOT metabolized | Compound NOT metabolized | Compound metabolized | Compound NOT metabolized | Compound metabolized |  | Compound NOT metabolized | Compound NOT metabolized |  | Compound NOT metabolized | Compound metabolized | Compound NOT metabolized | Compound NOT metabolized | Compound NOT metabolized | Compound NOT metabolized | Compound NOT metabolized | Compound NOT metabolized | Compound NOT metabolized
CCc1nn(CCCN2CCN(c3cccc(Cl)c3)CC2)c(=O)n1CCOc1ccccc1 [NEFAZODONE] | Compound NOT metabolized | Compound NOT metabolized | Compound NOT metabolized | Compound NOT metabolized | Compound NOT metabolized | Compound NOT metabolized | Compound NOT metabolized | Compound NOT metabolized | Compound NOT metabolized | Compound NOT metabolized |  | Compound NOT metabolized |  | Compound NOT metabolized | Compound NOT metabolized | Compound NOT metabolized | Compound NOT metabolized | Compound NOT metabolized | Compound NOT metabolized | Compound NOT metabolized
Cc1ccnc2c1NC(=O)c1cccnc1N2C1CC1 [NEVIRAPINE] | Compound NOT metabolized |  | Compound NOT metabolized | Compound NOT metabolized | Compound metabolized | Compound NOT metabolized | Compound NOT metabolized | Compound NOT metabolized | Compound NOT metabolized | Compound NOT metabolized | Compound NOT metabolized | Compound NOT metabolized |  | Compound NOT metabolized | Compound NOT metabolized | Compound NOT metabolized | Compound NOT metabolized | Compound NOT metabolized | Compound NOT metabolized | Compound NOT metabolized
CO[C@]12C[C@@H](COC(=O)c3cncc(Br)c3)CN(C)[C@@H]1Cc1cn(C)c3cccc2c13 [NICERGOLINE] | Compound NOT metabolized |  | Compound NOT metabolized | Compound NOT metabolized | Compound NOT metabolized | Compound metabolized | Compound NOT metabolized | Compound NOT metabolized | Compound NOT metabolized | Compound NOT metabolized | Compound metabolized | Compound NOT metabolized | Compound metabolized | Compound NOT metabolized | Compound NOT metabolized | Compound NOT metabolized | Compound NOT metabolized |  | Compound NOT metabolized | Compound NOT metabolized
